The values that follow come from publication PMC9315260, “Diarylamine-Guided Carboxamide Derivatives: Synthesis, Biological Evaluation, and Potential Mechanism of Action” (Frontiers in Chemistry, 2022).

The test system of series [1] is SGC-7901 (human gastric cancer cell line). Briefly: MTT in vitro cytotoxicity assay, SGC-7901. Type of series: cell-based. The conditions noted are these: for IC50: mean ± S.D. The protocol: (§1) The lead molecules A2 and all newly prepared diarylamine derivatives B1-13 and C1-11 were evaluated for their in vitro cytotoxic effects against SGC-7901, A875, HepG2 and MARC145 cell lines by the classical MTT [3-(4,5-dimethylthiazol-2-yl)-2,5-diphenyl tetrazolium bromide] assay ([Alley et al., 1988]; [Ke et al., 2012]; [Shi et al., 2012]; [Yu et al., 2015]; [Ke et al., 2019]; [Xu et al., 2019]; [Huang et al., 2021]) using 5-FU (5-Fluorouracil) as a control.
(§2) The cytotoxicity of target compounds was determined with MTT assay ([Alley et al., 1988]; [Ke et al., 2012]; [Shi et al., 2012]; [Yu et al., 2015]; [Ke et al., 2019]; [Xu et al., 2019]; [Huang et al., 2021]). SGC-7901, A875, HepG2 and MARC145 cell lines were obtained from Hubei Biopesticide Engineering Research Centre. All data of the experiment were analyzed with SPSS software, and all assay were performed in triplicate on three independent experiments, and measurement data were expressed as the mean ± S.D.
(§3) The in vitro cytotoxicity of the synthesized compounds against different cell lines (SGC-7901, A875, HepG2 and MARC145) was measured with MTT assay. All the data of the experiment were analyzed with SPSS software, and the 50% inhibitory concentrations (IC50) of each compound for the different cell lines were determined. A control was run for each test, and all assays were performed in triplicate on three independent experiments, and measurement data were expressed as the mean ± S.D.

Series [2] concerns A875 (human melanoma cell line). Briefly: MTT in vitro cytotoxicity assay, A875. Type of series: cell-based. The following applies: for IC50: mean ± S.D. The protocol:
as §1, §2, §3

Series [3] deals with HepG2 (human hepatocellular liver carcinoma cell line). Briefly: MTT in vitro cytotoxicity assay, HepG2. Type of series: cell-based. The following applies: for IC50: mean ± S.D. On the procedure: as §1, §2, §3
Series [4] in a line: MTT in vitro cytotoxicity assay, MARC145. Type of series: cell-based, African green monkey. The conditions noted are these: African green monkey, MARC145 cells (kidney cell line, subclone of MA-104), MTT, mean ± S.D. The protocol:
as §1, §2, §3

Series [5] relates to MARC145 (subclone of African green monkey kidney cell line MA-104). Briefly: MTT in vitro cytotoxicity assay, MARC145. Type of series: cell-based. The conditions noted are these: Chlorocebus sabaeus, MARC145; at 100 µM; read-out: Cell growth inhibition (%) MARC145. The protocol:
as §1, §2, §3

The test system of series [6] is SGC-7901, A875, HepG2 and MARC145 cell lines. Briefly: MTT in vitro cytotoxicity assay, statements over the whole cell panel. Type of series: cell-based. The conditions noted are these: SGC-7901, A875, HepG2, MARC145. On the procedure: as §1, §2, §3
Series [7] concerns A875 cells. Briefly: LDH release (cellular necrosis). Type of series: cell-based, human. The conditions noted are these: 24 h after treatment. On the procedure:
From the preliminary analysis of apoptosis, the results encourage us to further investigate the type of cell death induced by the potential compounds (C6 and C11). As we know, the release of LDH is a typical characteristic feature of necrotic cell death, and so which was detected.
A875 cells grown in 96-well plates were treated with serial dilutions of each tested compound for 24 h. The culture media were collected, and the concentrations of LDH were determined based on our previous research ([Huang et al., 2021]).
A875 cells grown in 96-well plates were treated with serial dilutions of each tested compound for 24 h. The culture media were collected, and the concentrations of LDH were determined with an LDH assay kit according to the manufacturer’s instructions (Abcam).

Series [8] concerns NCI-H460. Also noted: method as in Peng et al., 2017. The conditions noted are these: ref Peng et al., 2017; cited from earlier work.
The test system of series [9] is A549. Also noted: method as in Peng et al., 2017. The conditions noted are these: ref Peng et al., 2017; cited from earlier work.
For series [10], the system named is NCI-H1975. Also noted: method as in Peng et al., 2017. The following applies: ref Peng et al., 2017; cited from earlier work.
For series [11], the system named is HL-7702. Also noted: method as in Peng et al., 2017. The conditions noted are these: ref Peng et al., 2017; cited from earlier work.
In series [12] the test system is MDCK. Also noted: method as in Peng et al., 2017. The following applies: ref Peng et al., 2017; cited from earlier work.
In series [13] the test system is lung cancer cell lines (NCI-H460, A549, and NCI-H1975). Also noted: method as in Peng et al., 2017. The conditions noted are these: ref Peng et al., 2017, read-out: IC50 values against the tested lung cancer cell lines; cited from earlier work.

In the case of `O=c1[nH]cc(F)c(=O)[nH]1` [5-FU, 5-Fluorouracil, reference compound], the 50% inhibitory concentration (IC50) (commonly the point on the concentration scale where inhibition reaches its midpoint) in series [1] (SGC-7901, Table 1, MTT) was 71.1 ± 2.65 µM; in series [1] (SGC-7901, Table 3, MTT), 87.7 ± 11 µM; in series [2] (A875, Table 1, MTT), 82.4 ± 23.7 µM; in [2] (A875, Table 3, MTT), 101 ± 7.14 µM; in series [3] (HepG2, Table 1, MTT), 88.1 ± 17.2 µM; in series [3] (HepG2, Table 3, MTT), 91.8 ± 16.1 µM. The IC50 in [4] (Table 1) is 153 ± 11 µM; in series [4] (Table 3), 99 ± 16.4 µM. Moreover, the inhibition – broadly, the drop in the measured response relative to a control, in per cent – at 100 µM in [1] (SGC-7901, at 100 µM, read-out: Cell growth inhibition (%) SGC-7901) was determined as 56.8 ± 2.2%; in series [2] (A875, at 100 µM, read-out: Cell growth inhibition (%) A875), 53.2 ± 4.5%; in [3] (HepG2, at 100 µM, read-out: Cell growth inhibition (%) HepG2), 59 ± 3.5%; in series [5] it was 60.3 ± 3.9%. Besides, the “dose-response analysis of cell growth inhibition, in words” value in [6] is “significant concentration dependence”. For the same molecule, the “release of LDH, in words” value in series [7] was “significantly increased”.
For `Cc1cc(Cl)cc(C(N)=O)c1NC(=O)c1ccccc1Nc1cccc(C(F)(F)F)c1` [A1], the IC50 in series [1] (SGC-7901, Table 1, MTT) is 52.8 ± 6.59 µM; in [2] (A875, Table 1, MTT) it was 56.9 ± 7.54 µM; in [3] (HepG2, Table 1, MTT), > 89 µM; in [4] (Table 1), > 89 µM; in [8], > 80 µM; in [9], > 80 µM. Further, the IC50 in [10], in [11], in series [12] and in series [13] was > 80 µM throughout.
For `CNC(=O)c1cc(Cl)cc(C)c1NC(=O)c1ccccc1Nc1cccc(C(F)(F)F)c1` [A2], the IC50 is 8.5 ± 2.26 µM in series [1] (SGC-7901, Table 1, MTT); 7.59 ± 1.82 µM in [2] (A875, Table 1, MTT); 12.4 ± 0.39 µM in series [3] (HepG2, Table 1, MTT); 8.13 ± 2.49 µM in series [4] (Table 1); 7.59 to 12.4 µM in [6] (read-out: IC50 values, span over the tested cell lines); 14.8 ± 0.49 µM in series [8]. Also, the IC50 in [9] was 14.7 ± 1.86 µM; in [10] it was 23.4 ± 2.21 µM; in series [11], 46.4 ± 3.87 µM; in series [12], 46 ± 7.77 µM.
